For 19 molecules, IC50 results are on record in ChEMBL document CHEMBL4823300, “Design, synthesis and anticancer activity of sulfenylated imidazo-fused heterocycles” (Bioorg Med Chem Lett, 2021).

For orientation: IC50 means the concentration that inhibits the measured activity by half.

Assay [1] deals with MDA-MB-231. Briefly: Anticancer activity against human MDA-MB-231 cells assessed as growth inhibition incubated for 48 hrs by MTT assay. The class given is functional, cell-based. The following applies: MDA-MB-231, 48 h. A general note: Tetrazolium dyes change colour on reduction, which living cells bring about.
Assay [2] relates to HepG2. Briefly: Anticancer activity against human HepG2 cells assessed as growth inhibition incubated for 48 hrs by MTT assay. The class given is functional, cell-based. The following applies: HepG2, 48 h.
The test system of assay [3] is HeLa. The experiment in a line: Anticancer activity against human HeLa cells assessed as growth inhibition incubated for 48 hrs by MTT assay. It counts as functional, cell-based.
The subject of assay [4] is U-87 MG. The experiment in a line: Anticancer activity against human U-87 MG cells assessed as growth inhibition incubated for 48 hrs by MTT assay. It counts as functional, cell-based, U-87MG ATCC.
The test system of assay [5] is SK-MEL-28. Briefly: Anticancer activity against human SK-MEL-28 cells assessed as growth inhibition incubated for 48 hrs by MTT assay. The class given is functional, cell-based. The following applies: SK-MEL-28, 48 h.
Assay [6] deals with DU-145. The experiment in a line: Anticancer activity against human DU-145 cells assessed as growth inhibition incubated for 48 hrs by MTT assay. It counts as functional, cell-based. The following applies: DU-145, 48 h.
The subject of assay [7] is A549. Briefly: Anticancer activity against human A549 cells assessed as growth inhibition incubated for 48 hrs by MTT assay. The class given is functional, cell-based. The following applies: A549, 48 h.
The test system of assay [8] is HEK293. Briefly: Anticancer activity against human HEK293 cells assessed as growth inhibition incubated for 48 hrs by MTT assay. The class given is cell-based. The following applies: HEK293, 48 h.
The test system of assay [9] is NIH3T3. The experiment in a line: Anticancer activity against mouse NIH3T3 cells assessed as growth inhibition incubated for 48 hrs by MTT assay. The following applies: NIH3T3, 48 h. The class given is cell-based.

As to `COc1cccc2c1C(=O)c1c(O)c3c(c(O)c1C2=O)C[C@@](O)(C(=O)CO)C[C@@H]3O[C@H]1C[C@H](N)[C@H](O)[C@H](C)O1` [DOXORUBICIN], the IC50 in assay [1] was determined as 1.6 µM; in [2], 1.8 µM; in [3], 2.1 µM; in assay [4], 1.7 µM; in assay [5] it was 1.8 µM; in [6], 1.4 µM.
With `Clc1ccc2nc(-c3ccccc3)c(Sc3ccccc3)n2c1`, the concentration for half-maximal inhibition (IC50) in assay [1] is 55.8 µM; in assay [2], 15.7 µM; in [3] it was 29.3 µM; in assay [7], 24.4 µM; in assay [4], over 100 µM; in assay [5], 76.9 µM. The IC50 in assay [6] was 56.3 µM; in assay [8], over 100 µM; in assay [9], over 100 µM.
Turning to `c1ccc(Sc2c(-c3ccccc3)nc3ccc(-c4ccccc4)cn23)cc1`, the IC50 is 76.7 µM in assay [1]; 47.8 µM in assay [2]; 72.6 µM in [3]; 54.2 µM in assay [7]; over 100 µM in [4]; over 100 µM in assay [5]. Besides, the results for the half-inhibitory concentration (IC50) in assay [6], in assay [8] and in assay [9] were 71.7 µM, over 100 µM and over 100 µM, respectively.
As for `Clc1ccc(Sc2c(-c3cccs3)nc3ccccn23)cc1`, the IC50 in assay [1] is 73.1 µM; in assay [2], 59.3 µM; in [3], 74.1 µM; in assay [7], 69.8 µM; in assay [4], over 100 µM; in assay [5], 77.3 µM. Also, the IC50 came to 92.3 µM in [6], 93 µM in [8] and 86.1 µM in assay [9].
In the case of `c1ccc(Sc2c(-c3ccsc3)nc3ccccn23)cc1`, the IC50 is 62.8 µM in assay [1]; 49.6 µM in assay [2]; 76 µM in assay [3]; 72.9 µM in assay [7]; 58.6 µM in assay [4]; 69.3 µM in [5]. Moreover, the half-maximal inhibitory concentration (IC50) in assay [6] worked out at 85.9 µM; in assay [8], 91.7 µM; in assay [9], 94.1 µM.
For `COc1ccc(-c2nc3ccccn3c2Sc2ccccc2)cc1`, the IC50 was over 100 µM in assay [1]; 54.2 µM in assay [2]; over 100 µM in assay [3]; 58.4 µM in assay [7]; over 100 µM in assay [4]; 83.9 µM in [5]. The values for the 50% inhibitory concentration (IC50) in [6], in assay [8] and in [9] were 76.8 µM, over 100 µM and 91.7 µM, respectively.
With `c1ccc(Sc2c(-c3ccccc3)nc3sc4ccccc4n23)cc1`, the IC50 in [1] came out at 54.9 µM; in assay [2] it was 22.3 µM; in assay [3], 34.2 µM; in [7], 28.1 µM; in assay [4], 62.6 µM; in [5], 63.2 µM. Also, the IC50 is 45 µM in assay [6], over 100 µM in assay [8] and over 100 µM in assay [9].
Turning to `N#Cc1ccc(-c2nc3ccccn3c2Sc2ccccc2)cc1`, the IC50 in assay [1] came out at 17.8 µM; in [2] it was 15.7 µM; in [3] it was 64.2 µM; in [7], 35.2 µM; in assay [4], 65.5 µM; in assay [5], 67.5 µM. Also, the IC50 is 76.5 µM in [6], over 100 µM in assay [8] and over 100 µM in assay [9].
Consider `Clc1ccc(-c2nc3sc4ccccc4n3c2Sc2ccccc2)cc1`, for which the IC50 is 72.1 µM in assay [1]; 57.8 µM in assay [2]; 64.1 µM in [3]; 75.1 µM in assay [7]; over 100 µM in assay [4]; over 100 µM in assay [5]. The IC50 was 78 µM in assay [6], over 100 µM in assay [8] and over 100 µM in assay [9].
Consider `CCc1ccc(-c2nc3ccccn3c2Sc2ccccc2)cc1`, for which the IC50 is over 100 µM in [1]; 50.2 µM in assay [2]; 52.1 µM in assay [3]; 56.2 µM in assay [7]; 61.7 µM in assay [4]; over 100 µM in assay [5]. Also, the figures for the IC50 in assay [6], in assay [8] and in assay [9] were 84.5 µM, over 100 µM and over 100 µM, respectively.
On to `Cc1ccc(-c2nc3ccc(C)cn3c2Sc2ccccc2)cc1`, for which the IC50 in assay [1] came out at 38 µM; in [2] it was 14.6 µM; in assay [3], 65.2 µM; in [7] it was 23.8 µM; in assay [4] it was 82.1 µM; in assay [5], 95.7 µM. Further, the 50% inhibitory concentration (IC50) in [6] was 57.7 µM; in assay [8], over 100 µM; in assay [9] it was over 100 µM.
Regarding `Cc1ccc(-c2nc3ccccn3c2Sc2ccccc2)cc1`, the 50% inhibitory concentration (IC50) in [1] is over 100 µM; in [2] it was 67.9 µM; in [3], 86.7 µM; in [7] it was 94.3 µM; in assay [4], over 100 µM; in assay [5] it was over 100 µM. Moreover, the figures for the 50% inhibitory concentration (IC50) in assay [6], in assay [8] and in assay [9] were 83.3 µM, over 100 µM and over 100 µM, respectively.
Take `CS(=O)(=O)c1ccc(-c2nc3ccccn3c2Sc2cccc3ccccc23)cc1`: the concentration for half-maximal inhibition (IC50) amounted to 24.1 µM in [1]; 13.6 µM in assay [2]; 34.6 µM in [3]; 19.6 µM in [7]; 56.2 µM in assay [4]; 67.3 µM in assay [5]. Also, the IC50 in assay [6] amounted to 20.8 µM; in assay [8], 83.2 µM; in assay [9], 86.4 µM.
As to `Clc1ccc(Sc2c(-c3ccccc3)nc3ccccn23)cc1`, the IC50 in [1] amounted to 57.6 µM; in assay [2] it was 16.9 µM; in [3] it was 36.6 µM; in assay [7], 27.7 µM; in assay [4], 62.8 µM; in assay [5] it was 74 µM. Besides, the results for the IC50 in assay [6], in [8] and in [9] were 76.7 µM, 91.4 µM and 88.7 µM, respectively.
On to `c1ccc(Sc2c(-c3cccs3)nc3ccccn23)cc1`, for which the IC50 is 69.2 µM in [1]; 17.1 µM in [2]; 19.9 µM in assay [3]; 16.9 µM in [7]; over 100 µM in [4]; 85.3 µM in assay [5]. Further, the IC50 in assay [6] is 24.1 µM; in [8] it was over 100 µM; in assay [9], over 100 µM.
With `COc1cccc(OC)c1-c1nc2ccccn2c1Sc1ccccc1`, the half-maximal inhibitory concentration (IC50) in assay [1] is 75.6 µM; in assay [2] it was 19.5 µM; in assay [3], 32.2 µM; in assay [7] it was 21.5 µM; in assay [4] it was over 100 µM; in assay [5] it was over 100 µM. In addition, the IC50 in assay [6] was 22.4 µM; in [8], over 100 µM; in assay [9] it was over 100 µM.
Consider `Cc1ccc2nc(-c3ccc(Cl)cc3)c(Sc3ccccc3)n2c1`, for which the IC50 is 94.5 µM in [1]; 63.1 µM in assay [2]; 79.9 µM in assay [3]; 71.5 µM in assay [7]; over 100 µM in assay [4]; 81.5 µM in assay [5]. Moreover, the IC50 was 95.1 µM in assay [6], over 100 µM in assay [8] and over 100 µM in [9].
Consider `Clc1ccc(-c2nc3ccccn3c2Sc2ccccc2)cc1`, for which the IC50 in assay [1] was determined as 24.5 µM; in assay [2] it was 13.9 µM; in assay [3], 62 µM; in [7], 22 µM; in assay [4] it was 30.2 µM; in [5], 73.1 µM. For the same molecule, the IC50 is 30.7 µM in [6], over 100 µM in assay [8] and over 100 µM in assay [9].
On to `CS(=O)(=O)c1ccc(-c2nc3ccccn3c2Sc2ccccc2)cc1`, for which the IC50 in assay [1] was 72.7 µM; in assay [2] it was 13.2 µM; in assay [3], 70.6 µM; in assay [7] it was 23.2 µM; in [4] it was 77.2 µM; in assay [5], 61.9 µM. Besides, the IC50 is 67.8 µM in assay [6], over 100 µM in assay [8] and over 100 µM in assay [9].
